According to PMC5392334, “Discovery and characterization of a novel irreversible EGFR mutants selective and potent kinase inhibitor CHMFL-EGFR-26 with a distinct binding mode” (Oncotarget, 2017):
“And” between values parts separate entries of the source, which are not always exact repeats. Equal values may be shown once.

Key:
FRK = target: T1, FRK (Homo sapiens, UniProt P42685); experiment: KinomeScan; format: binding; details: read-out: % control
T1 construct: purchased DiscoveRx KINOMEscan

TAK1 = target: T2, TAK1 (Homo sapiens, UniProt O43318); experiment: KinomeScan; format: binding; details: read-out: % control
T2 construct: purchased DiscoveRx KINOMEscan

ROS1 = target: T3, ROS1 (Homo sapiens, UniProt P08922); experiment: KinomeScan; format: binding; details: read-out: % control
T3 construct: purchased DiscoveRx KINOMEscan

EGFR = target: T4, EGFR (Homo sapiens, UniProt P00533); experiment: KinomeScan; format: binding; details: read-out: % control
T4 construct: purchased DiscoveRx KINOMEscan

EIF2AK1 = target: T5, EIF2AK1 (Homo sapiens, UniProt Q9BQI3); experiment: KinomeScan; format: binding; details: read-out: % control
T5 construct: purchased DiscoveRx KINOMEscan

ROCK2 = target: T6, ROCK2 (Homo sapiens, UniProt O75116); experiment: KinomeScan; format: binding; details: read-out: % control
T6 construct: purchased DiscoveRx KINOMEscan

PRKCE = target: T7, PRKCE (Homo sapiens, UniProt Q02156); experiment: KinomeScan; format: binding; details: read-out: % control
T7 construct: purchased DiscoveRx KINOMEscan

LKB1 = target: T8, LKB1 (Homo sapiens, UniProt Q15831); experiment: KinomeScan; format: binding; details: read-out: % control
T8 construct: purchased DiscoveRx KINOMEscan

CHO = experiment: Anti-proliferation, normal cells (CellTiter-Glo); details: Cricetulus griseus, 72 h
Procedure: Cells were grown in 96-well culture plates (2500-3000/well). For adherent cell lines, compounds of various concentrations were added into the plates after cells were cultured for 12 hours. Cell proliferation was determined after treatment with compounds for 72 hours. Cell viability was measured using the CellTiter–Glo assay (Promega, USA) according to the manufacturer's instructions, and luminescence was measured in a multi-label reader (Envision, PerkinElmer, USA). Data were normalized to control groups (DMSO) and represented by the mean of three independent measurements with standard error <20%. GI50 values were calculated using Prism 5.0 (GraphPad Software, San Diego, CA).

PFTK1 = target: T9, PFTK1 (Homo sapiens, UniProt O94921); experiment: KinomeScan; format: binding; details: read-out: % control
T9 construct: purchased DiscoveRx KINOMEscan

CAMKK2 = target: T10, CAMKK2 (Homo sapiens, UniProt Q96RR4); experiment: KinomeScan; format: binding; details: read-out: % control
T10 construct: purchased DiscoveRx KINOMEscan

PIK3CA(H1047L) = target: T11, PIK3CA(H1047L) (Homo sapiens, UniProt P42336, H1047L); experiment: KinomeScan; format: binding; details: read-out: % control
T11 construct: purchased DiscoveRx KINOMEscan

EGFR(G719C) = target: T12, EGFR(G719C) (Homo sapiens, UniProt P00533, G719C); experiment: KinomeScan; format: binding; details: read-out: % control
T12 construct: purchased DiscoveRx KINOMEscan

RET(M918T) = target: T13, RET(M918T) (Homo sapiens, UniProt P07949, M918T); experiment: KinomeScan; format: binding; details: read-out: % control
T13 construct: purchased DiscoveRx KINOMEscan

EGFR(ErbB1) = EGFR(ErbB1) (Homo sapiens, UniProt P00533); experiment: SelectScreen biochemical assay
Source text: The enzymatic inhibition result of CHMFL-EGFR-26 was detected by SelectScreen techonology (Life Technologies).

MEK1 = target: T14, MEK1 (Homo sapiens, UniProt Q02750); experiment: KinomeScan; format: binding; details: read-out: % control
T14 construct: purchased Invitrogen (SelectScreen service)

ALK(C1156Y) = target: T15, ALK(C1156Y) (Homo sapiens, UniProt Q9UM73, C1156Y); experiment: KinomeScan; format: binding; details: read-out: % control
T15 construct: purchased DiscoveRx KINOMEscan

IKK-alpha = target: T16, IKK-alpha (Homo sapiens, UniProt O15111); experiment: KinomeScan; format: binding; details: read-out: % control
T16 construct: purchased DiscoveRx KINOMEscan

ARK5 = target: T17, ARK5 (Homo sapiens, UniProt O60285); experiment: KinomeScan; format: binding; details: read-out: % control
T17 construct: purchased DiscoveRx KINOMEscan

LZK = target: T18, LZK (Homo sapiens, UniProt O43283); experiment: KinomeScan; format: binding; details: read-out: % control
T18 construct: purchased DiscoveRx KINOMEscan

ACVR1B = target: T19, ACVR1B (Homo sapiens, UniProt P36896); experiment: KinomeScan; format: binding; details: read-out: % control
T19 construct: purchased DiscoveRx KINOMEscan

MST2 = target: T20, MST2 (Homo sapiens, UniProt Q13188); experiment: KinomeScan; format: binding; details: read-out: % control
T20 construct: purchased DiscoveRx KINOMEscan

FLT3(ITD,D835V) = experiment: KinomeScan; format: binding; details: 1μM
[1] = target: T21, ABL1(T315I)-phosphorylated (Homo sapiens, UniProt P00519, T315I); experiment: KinomeScan; format: binding; details: read-out: % control
T21 construct: purchased DiscoveRx KINOMEscan

TSSK3 = target: T22, TSSK3 (Homo sapiens, UniProt Q96PN8); experiment: KinomeScan; format: binding; details: read-out: % control
T22 construct: purchased DiscoveRx KINOMEscan

[2] = target: T23, TYK2(JH1domain-catalytic) (Homo sapiens, UniProt P29597); experiment: KinomeScan; format: binding; details: read-out: % control
T23 construct: TYK2(JH1domain-catalytic); purchased DiscoveRx KINOMEscan

TEC = target: T24, TEC (Homo sapiens, UniProt P42680); experiment: KinomeScan; format: binding; details: read-out: % control
T24 construct: purchased DiscoveRx KINOMEscan

SRMS = target: T25, SRMS (Homo sapiens, UniProt Q9H3Y6); experiment: KinomeScan; format: binding; details: read-out: % control
T25 construct: purchased DiscoveRx KINOMEscan

HIPK2 = target: T26, HIPK2 (Homo sapiens, UniProt Q9H2X6); experiment: KinomeScan; format: binding; details: read-out: % control
T26 construct: purchased DiscoveRx KINOMEscan

CSF1R = target: T27, CSF1R (Homo sapiens, UniProt P07333); experiment: KinomeScan; format: binding; details: read-out: % control
T27 construct: purchased DiscoveRx KINOMEscan

CLK2 = target: T28, CLK2 (Homo sapiens, UniProt P49760); experiment: KinomeScan; format: binding; details: read-out: % control
T28 construct: purchased DiscoveRx KINOMEscan

ERBB3 = target: T29, ERBB3 (Homo sapiens, UniProt P21860); experiment: KinomeScan; format: binding; details: read-out: % control
T29 construct: purchased DiscoveRx KINOMEscan

EPHA2 = target: T30, EPHA2 (Homo sapiens, UniProt P29317); experiment: KinomeScan; format: binding; details: read-out: % control
T30 construct: purchased DiscoveRx KINOMEscan

TNK1 = target: T31, TNK1 (Homo sapiens, UniProt Q13470); experiment: KinomeScan; format: binding; details: read-out: % control
T31 construct: purchased DiscoveRx KINOMEscan

[3] = target: T32, ABL1(Y253F)-phosphorylated (Homo sapiens, UniProt P00519, Y253F); experiment: KinomeScan; format: binding; details: read-out: % control
T32 construct: purchased DiscoveRx KINOMEscan

PRKCQ = target: T33, PRKCQ (Homo sapiens, UniProt Q04759); experiment: KinomeScan; format: binding; details: read-out: % control
T33 construct: purchased DiscoveRx KINOMEscan

BaF3-FL-EGFR-L858R-T790M = experiment: Anti-proliferation, BaF3 isogenic cell lines (CellTiter-Glo); format: cell-based; details: Mus musculus, 72 hours, triplet testing
[4] = target: T34, JAK3(JH1domain-catalytic) (Homo sapiens, UniProt P52333); experiment: KinomeScan; format: binding; details: read-out: % control
T34 construct: JAK3(JH1domain-catalytic); purchased DiscoveRx KINOMEscan

[5] = target: RPS6KA4(Kin.Dom.2-C-terminal) (Homo sapiens, UniProt O75676); experiment: KinomeScan; format: binding; details: read-out: % control
SLK = target: T35, SLK (Homo sapiens, UniProt Q9H2G2); experiment: KinomeScan; format: binding; details: read-out: % control
T35 construct: purchased DiscoveRx KINOMEscan

ERK4 = target: T36, ERK4 (Homo sapiens, UniProt P31152); experiment: KinomeScan; format: binding; details: read-out: % control
T36 construct: purchased DiscoveRx KINOMEscan

PDPK1 = target: T37, PDPK1 (Homo sapiens, UniProt O15530); experiment: KinomeScan; format: binding; details: read-out: % control
T37 construct: purchased DiscoveRx KINOMEscan

EGFR(ErbB1), sequence (P00533 25-1210): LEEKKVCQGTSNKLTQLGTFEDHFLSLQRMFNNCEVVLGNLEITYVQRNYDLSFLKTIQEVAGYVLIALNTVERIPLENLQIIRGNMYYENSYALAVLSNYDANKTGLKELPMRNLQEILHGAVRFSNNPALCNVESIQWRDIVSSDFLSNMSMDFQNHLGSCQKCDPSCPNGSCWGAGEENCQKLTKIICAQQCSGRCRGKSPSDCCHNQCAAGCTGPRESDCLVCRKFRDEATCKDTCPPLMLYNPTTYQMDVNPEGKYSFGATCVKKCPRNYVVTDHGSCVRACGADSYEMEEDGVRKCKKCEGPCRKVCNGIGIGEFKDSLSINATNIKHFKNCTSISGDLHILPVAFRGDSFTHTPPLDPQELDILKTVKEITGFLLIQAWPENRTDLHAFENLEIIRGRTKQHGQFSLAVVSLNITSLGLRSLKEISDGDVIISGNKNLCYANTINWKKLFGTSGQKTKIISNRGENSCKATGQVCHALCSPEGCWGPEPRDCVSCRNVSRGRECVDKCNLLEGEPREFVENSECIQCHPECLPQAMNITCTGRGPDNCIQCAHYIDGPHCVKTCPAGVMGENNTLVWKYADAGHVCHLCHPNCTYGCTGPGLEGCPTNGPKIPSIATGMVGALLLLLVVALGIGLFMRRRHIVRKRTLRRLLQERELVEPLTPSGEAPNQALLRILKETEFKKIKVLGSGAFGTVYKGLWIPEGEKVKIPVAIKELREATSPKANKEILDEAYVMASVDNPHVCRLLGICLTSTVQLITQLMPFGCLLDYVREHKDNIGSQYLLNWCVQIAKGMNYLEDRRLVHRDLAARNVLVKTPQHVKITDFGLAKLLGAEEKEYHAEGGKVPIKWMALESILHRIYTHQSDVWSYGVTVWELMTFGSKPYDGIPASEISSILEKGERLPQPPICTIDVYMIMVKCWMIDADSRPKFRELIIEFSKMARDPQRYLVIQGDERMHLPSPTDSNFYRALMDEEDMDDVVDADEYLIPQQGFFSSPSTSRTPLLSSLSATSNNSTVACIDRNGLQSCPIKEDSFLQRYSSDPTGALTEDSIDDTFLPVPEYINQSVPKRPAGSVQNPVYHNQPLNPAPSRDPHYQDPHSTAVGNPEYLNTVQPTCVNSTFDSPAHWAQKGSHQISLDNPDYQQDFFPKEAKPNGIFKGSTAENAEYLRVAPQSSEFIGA
T7 sequence (Q02156 whole entry): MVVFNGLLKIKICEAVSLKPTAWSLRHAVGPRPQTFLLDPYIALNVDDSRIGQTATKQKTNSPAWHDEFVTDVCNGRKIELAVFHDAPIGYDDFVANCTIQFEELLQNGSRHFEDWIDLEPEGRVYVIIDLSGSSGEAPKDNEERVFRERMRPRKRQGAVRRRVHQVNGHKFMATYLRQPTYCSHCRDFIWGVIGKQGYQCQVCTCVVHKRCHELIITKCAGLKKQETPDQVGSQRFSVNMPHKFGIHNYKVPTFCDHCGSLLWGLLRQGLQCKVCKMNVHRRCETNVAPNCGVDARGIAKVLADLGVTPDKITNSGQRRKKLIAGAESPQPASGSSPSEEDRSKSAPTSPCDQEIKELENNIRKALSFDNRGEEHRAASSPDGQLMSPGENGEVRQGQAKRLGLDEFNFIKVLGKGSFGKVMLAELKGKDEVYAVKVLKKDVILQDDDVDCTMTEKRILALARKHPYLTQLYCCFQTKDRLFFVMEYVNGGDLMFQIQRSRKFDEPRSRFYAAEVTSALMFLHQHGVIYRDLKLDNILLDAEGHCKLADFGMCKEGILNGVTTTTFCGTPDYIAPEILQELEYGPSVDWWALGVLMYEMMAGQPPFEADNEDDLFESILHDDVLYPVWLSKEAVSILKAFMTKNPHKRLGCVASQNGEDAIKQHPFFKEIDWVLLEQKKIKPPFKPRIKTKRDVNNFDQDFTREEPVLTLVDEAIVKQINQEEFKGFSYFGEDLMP
T3 sequence (P08922 28-2347): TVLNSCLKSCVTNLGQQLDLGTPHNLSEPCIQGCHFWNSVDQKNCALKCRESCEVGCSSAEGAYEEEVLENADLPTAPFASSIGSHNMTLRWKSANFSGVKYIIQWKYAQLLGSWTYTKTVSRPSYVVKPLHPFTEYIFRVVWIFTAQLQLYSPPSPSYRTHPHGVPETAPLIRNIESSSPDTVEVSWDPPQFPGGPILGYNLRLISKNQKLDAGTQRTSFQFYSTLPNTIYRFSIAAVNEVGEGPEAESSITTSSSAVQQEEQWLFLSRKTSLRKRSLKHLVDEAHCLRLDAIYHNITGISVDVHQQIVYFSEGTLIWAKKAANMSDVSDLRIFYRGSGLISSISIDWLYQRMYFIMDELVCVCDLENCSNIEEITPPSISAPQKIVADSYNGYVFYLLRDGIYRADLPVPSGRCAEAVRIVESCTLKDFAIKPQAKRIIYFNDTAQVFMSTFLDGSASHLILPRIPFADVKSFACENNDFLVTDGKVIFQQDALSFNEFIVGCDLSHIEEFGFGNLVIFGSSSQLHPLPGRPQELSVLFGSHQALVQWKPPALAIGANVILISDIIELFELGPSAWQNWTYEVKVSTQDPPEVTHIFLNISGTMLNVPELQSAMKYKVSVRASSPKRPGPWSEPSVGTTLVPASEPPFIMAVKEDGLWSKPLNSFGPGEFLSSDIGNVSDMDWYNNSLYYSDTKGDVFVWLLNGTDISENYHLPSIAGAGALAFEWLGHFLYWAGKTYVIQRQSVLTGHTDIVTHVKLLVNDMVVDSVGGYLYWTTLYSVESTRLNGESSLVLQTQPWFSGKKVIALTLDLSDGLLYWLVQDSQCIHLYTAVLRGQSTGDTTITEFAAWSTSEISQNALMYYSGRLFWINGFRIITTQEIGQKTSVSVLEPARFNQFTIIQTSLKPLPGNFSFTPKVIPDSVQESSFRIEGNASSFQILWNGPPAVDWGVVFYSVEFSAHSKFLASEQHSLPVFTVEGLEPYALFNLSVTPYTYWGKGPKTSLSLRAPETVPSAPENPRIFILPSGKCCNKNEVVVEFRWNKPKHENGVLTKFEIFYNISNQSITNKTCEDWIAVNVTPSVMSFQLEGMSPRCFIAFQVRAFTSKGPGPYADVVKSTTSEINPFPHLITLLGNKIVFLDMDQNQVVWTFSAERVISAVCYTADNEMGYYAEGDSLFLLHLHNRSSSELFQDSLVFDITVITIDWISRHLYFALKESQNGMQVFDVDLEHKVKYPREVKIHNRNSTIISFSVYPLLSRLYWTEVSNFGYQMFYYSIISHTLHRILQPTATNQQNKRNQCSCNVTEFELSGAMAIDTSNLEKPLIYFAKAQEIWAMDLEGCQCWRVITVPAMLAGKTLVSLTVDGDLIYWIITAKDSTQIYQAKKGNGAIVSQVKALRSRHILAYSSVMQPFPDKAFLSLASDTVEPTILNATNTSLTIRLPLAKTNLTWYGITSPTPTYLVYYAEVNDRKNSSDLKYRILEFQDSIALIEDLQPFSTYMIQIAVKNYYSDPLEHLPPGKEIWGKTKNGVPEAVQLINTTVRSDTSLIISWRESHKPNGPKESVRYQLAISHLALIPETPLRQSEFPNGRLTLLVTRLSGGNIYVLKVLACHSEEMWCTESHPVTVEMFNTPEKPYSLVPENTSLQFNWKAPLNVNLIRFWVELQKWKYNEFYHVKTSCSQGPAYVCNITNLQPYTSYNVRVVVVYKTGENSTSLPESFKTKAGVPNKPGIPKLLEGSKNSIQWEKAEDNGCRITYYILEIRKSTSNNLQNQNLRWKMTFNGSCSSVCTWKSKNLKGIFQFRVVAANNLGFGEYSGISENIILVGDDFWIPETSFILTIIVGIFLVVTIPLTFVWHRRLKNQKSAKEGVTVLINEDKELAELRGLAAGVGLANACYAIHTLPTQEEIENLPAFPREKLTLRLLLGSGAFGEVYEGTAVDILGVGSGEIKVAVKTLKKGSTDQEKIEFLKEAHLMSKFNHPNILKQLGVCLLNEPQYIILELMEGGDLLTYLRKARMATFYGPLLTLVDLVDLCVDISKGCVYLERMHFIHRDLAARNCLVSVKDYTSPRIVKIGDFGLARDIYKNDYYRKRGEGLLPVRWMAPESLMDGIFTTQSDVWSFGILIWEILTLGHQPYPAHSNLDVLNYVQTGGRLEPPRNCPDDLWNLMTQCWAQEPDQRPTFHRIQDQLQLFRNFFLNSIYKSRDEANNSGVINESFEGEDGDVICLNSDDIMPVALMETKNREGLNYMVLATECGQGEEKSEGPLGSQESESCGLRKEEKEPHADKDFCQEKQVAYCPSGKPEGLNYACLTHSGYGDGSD
T17 sequence (O60285 whole entry): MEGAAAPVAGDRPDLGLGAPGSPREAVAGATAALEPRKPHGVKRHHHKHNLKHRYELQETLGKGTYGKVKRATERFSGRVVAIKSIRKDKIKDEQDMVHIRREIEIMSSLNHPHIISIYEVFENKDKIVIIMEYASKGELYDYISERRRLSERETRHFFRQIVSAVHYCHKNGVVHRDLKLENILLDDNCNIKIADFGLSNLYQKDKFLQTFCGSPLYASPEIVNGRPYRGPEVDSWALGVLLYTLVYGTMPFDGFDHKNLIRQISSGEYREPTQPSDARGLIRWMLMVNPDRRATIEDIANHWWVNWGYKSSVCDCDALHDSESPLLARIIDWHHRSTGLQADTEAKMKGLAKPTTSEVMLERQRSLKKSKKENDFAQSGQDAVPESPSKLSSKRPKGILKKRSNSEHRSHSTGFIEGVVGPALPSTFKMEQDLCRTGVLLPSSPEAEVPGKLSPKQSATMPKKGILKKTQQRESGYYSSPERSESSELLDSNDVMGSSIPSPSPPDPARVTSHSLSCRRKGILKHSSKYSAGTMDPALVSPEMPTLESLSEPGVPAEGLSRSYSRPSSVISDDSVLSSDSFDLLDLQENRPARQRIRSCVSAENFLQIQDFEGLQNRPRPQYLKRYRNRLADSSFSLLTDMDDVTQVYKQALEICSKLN

## C=CC(=O)N1CCC[C@@H](n2nc(-c3ccc(OCc4cccc(C)n4)c(Cl)c3)c3c(N)ncnc32)C1 [CHMFL-EGFR-26]
FRK
  remaining binding at 1 µM: 96%
TAK1
  remaining binding at 1 µM: 100%
ROS1
  remaining binding at 1 µM: 89%
EGFR
  remaining binding at 1 µM: 0.8%
EIF2AK1
  remaining binding at 1 µM: 100%
ROCK2
  remaining binding at 1 µM: 100%
PRKCE
  remaining binding at 1 µM: 99%
LKB1
  remaining binding at 1 µM: 79%
CHO
  GI50: > 10000 nM
PFTK1
  remaining binding at 1 µM: 100%
CAMKK2
  remaining binding at 1 µM: 75%
PIK3CA(H1047L)
  remaining binding at 1 µM: 81%
EGFR(G719C)
  remaining binding at 1 µM: 16%
RET(M918T)
  remaining binding at 1 µM: 100%
EGFR(ErbB1)
  IC50: 71 nM and 71.4 nM
MEK1
  remaining binding at 1 µM: 0.3%
ALK(C1156Y)
  remaining binding at 1 µM: 100%
IKK-alpha
  remaining binding at 1 µM: 98%
ARK5
  remaining binding at 1 µM: 77%
LZK
  remaining binding at 1 µM: 86%
ACVR1B
  remaining binding at 1 µM: 30%
MST2
  remaining binding at 1 µM: 53%
FLT3(ITD,D835V)
  % control: 99%
[1]
  remaining binding at 1 µM: 98%
TSSK3
  remaining binding at 1 µM: 100%
[2]
  remaining binding at 1 µM: 100%
TEC
  remaining binding at 1 µM: 13%
SRMS
  remaining binding at 1 µM: 11%
HIPK2
  remaining binding at 1 µM: 100%
CSF1R
  remaining binding at 1 µM: 98%
CLK2
  remaining binding at 1 µM: 96%
ERBB3
  remaining binding at 1 µM: 89%
EPHA2
  remaining binding at 1 µM: 100%
TNK1
  remaining binding at 1 µM: 64%
[3]
  remaining binding at 1 µM: 100%
PRKCQ
  remaining binding at 1 µM: 57%
BaF3-FL-EGFR-L858R-T790M
  GI50: 6 nM
[4]
  remaining binding at 1 µM: 0.7%
[5]
  remaining binding at 1 µM: 100%
SLK
  remaining binding at 1 µM: 8.8%
ERK4
  remaining binding at 1 µM: 83%
PDPK1
  remaining binding at 1 µM: 97%
